Laboratory results: ChEMBL document CHEMBL1150014, “DISCOVERY OF A NOVEL CLASS OF BK CHANNEL OPENERS: ENANTIOSPECIFIC SYNTHESIS AND BK CHANNEL OPENING ACTIVITY OF 3-(5-CHLORO-2-HYDROXYPHENYL)-1,3-DIHYDRO-3-HYDROXY-6-(TRIFLUOROMETHYL)-2H-INDOL-2-ONE” (Bioorg Med Chem Lett, 1997)

What follows are compounds tested against Calcium-activated potassium channel subunit alpha-1 (Mus musculus) (UniProt Q08460) (assay: Effect on outward K+ current using two-electrode voltage clamp recording from Xenopus laevis oocyte expressing cloned mSlo at 30 uM).
Format: functional

Sequence of Calcium-activated potassium channel subunit alpha-1 (Mus musculus) (Q08460 whole entry): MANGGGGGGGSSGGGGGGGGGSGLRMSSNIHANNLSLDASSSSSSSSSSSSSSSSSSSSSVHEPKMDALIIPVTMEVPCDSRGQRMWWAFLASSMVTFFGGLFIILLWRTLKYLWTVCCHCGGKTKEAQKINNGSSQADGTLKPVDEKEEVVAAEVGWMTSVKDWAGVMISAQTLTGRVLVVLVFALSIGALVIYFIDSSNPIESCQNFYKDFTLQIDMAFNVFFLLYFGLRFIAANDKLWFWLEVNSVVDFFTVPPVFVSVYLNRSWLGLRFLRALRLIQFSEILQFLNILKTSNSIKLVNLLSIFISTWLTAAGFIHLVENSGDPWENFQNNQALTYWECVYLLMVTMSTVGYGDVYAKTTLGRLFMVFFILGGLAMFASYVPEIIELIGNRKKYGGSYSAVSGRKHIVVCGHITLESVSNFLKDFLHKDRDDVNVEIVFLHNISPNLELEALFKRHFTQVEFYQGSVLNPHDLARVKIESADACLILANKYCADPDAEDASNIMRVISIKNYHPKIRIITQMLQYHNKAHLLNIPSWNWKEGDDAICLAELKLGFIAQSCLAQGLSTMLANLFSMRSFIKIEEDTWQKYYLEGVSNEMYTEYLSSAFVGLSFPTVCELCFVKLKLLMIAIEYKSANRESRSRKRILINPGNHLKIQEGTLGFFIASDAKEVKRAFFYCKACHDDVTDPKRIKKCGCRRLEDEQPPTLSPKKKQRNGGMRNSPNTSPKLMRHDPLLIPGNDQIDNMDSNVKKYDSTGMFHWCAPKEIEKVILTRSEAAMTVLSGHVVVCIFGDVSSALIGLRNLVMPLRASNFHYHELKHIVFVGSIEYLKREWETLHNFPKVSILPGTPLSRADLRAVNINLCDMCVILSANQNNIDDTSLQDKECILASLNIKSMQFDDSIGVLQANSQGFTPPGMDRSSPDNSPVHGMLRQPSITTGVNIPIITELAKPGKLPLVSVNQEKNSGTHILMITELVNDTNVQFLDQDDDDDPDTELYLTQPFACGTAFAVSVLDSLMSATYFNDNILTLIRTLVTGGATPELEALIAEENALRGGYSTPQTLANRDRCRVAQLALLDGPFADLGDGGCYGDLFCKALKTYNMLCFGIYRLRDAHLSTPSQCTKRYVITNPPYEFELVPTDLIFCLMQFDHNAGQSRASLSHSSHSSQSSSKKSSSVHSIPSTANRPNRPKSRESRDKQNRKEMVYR

First: O=c1[nH]c2cc(C(F)(F)F)ccc2n1-c1cc(Cl)ccc1O
Second: O=C1Nc2cc(C(F)(F)F)ccc2C1(O)c1cc(Cl)ccc1O (racemic)
The Control of the first is lower: 148% for the first, 201% for the second.

Each compound was assayed against Calcium-activated potassium channel subunit alpha-1 (Homo sapiens) (UniProt Q12791) (assay: Effect on outward K+ current using two-electrode voltage clamp recording from Xenopus laevis oocyte expressing cloned hSlo at 20 uM).
Format: functional

Sequence of Calcium-activated potassium channel subunit alpha-1 (Homo sapiens) (Q12791 whole entry): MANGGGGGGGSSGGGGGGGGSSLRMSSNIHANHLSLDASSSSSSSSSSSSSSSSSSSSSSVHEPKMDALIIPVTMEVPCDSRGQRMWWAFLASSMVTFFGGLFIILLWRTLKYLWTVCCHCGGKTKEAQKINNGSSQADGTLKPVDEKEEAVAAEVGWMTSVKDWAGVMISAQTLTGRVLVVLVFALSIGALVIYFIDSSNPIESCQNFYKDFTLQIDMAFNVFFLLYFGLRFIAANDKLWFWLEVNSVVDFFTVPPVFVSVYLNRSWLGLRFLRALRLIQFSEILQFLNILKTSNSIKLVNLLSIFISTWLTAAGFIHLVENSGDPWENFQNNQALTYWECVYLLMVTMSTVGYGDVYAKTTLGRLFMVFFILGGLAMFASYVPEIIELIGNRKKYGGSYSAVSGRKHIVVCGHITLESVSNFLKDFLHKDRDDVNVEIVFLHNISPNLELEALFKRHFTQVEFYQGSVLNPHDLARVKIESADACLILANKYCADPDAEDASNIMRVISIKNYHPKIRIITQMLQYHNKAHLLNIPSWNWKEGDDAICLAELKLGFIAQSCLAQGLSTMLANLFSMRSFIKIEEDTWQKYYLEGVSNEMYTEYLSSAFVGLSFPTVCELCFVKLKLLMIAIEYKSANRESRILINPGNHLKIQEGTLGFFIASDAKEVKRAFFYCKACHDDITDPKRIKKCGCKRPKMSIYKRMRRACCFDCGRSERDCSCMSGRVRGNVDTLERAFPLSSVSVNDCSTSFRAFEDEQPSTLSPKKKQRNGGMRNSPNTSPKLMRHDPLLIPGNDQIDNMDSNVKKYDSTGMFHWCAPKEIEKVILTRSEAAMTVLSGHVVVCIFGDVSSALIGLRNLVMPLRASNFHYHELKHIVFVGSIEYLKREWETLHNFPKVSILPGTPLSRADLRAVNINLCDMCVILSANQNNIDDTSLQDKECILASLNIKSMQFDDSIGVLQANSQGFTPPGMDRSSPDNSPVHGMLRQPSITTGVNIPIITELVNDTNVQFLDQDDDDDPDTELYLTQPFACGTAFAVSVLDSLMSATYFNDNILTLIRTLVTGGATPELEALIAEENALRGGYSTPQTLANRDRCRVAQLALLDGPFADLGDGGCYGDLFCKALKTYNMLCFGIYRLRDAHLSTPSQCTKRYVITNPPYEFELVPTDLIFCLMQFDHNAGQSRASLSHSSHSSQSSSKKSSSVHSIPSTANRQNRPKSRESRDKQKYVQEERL

Compared with `COc1ccc(Cl)cc1C1(O)C(=O)Nc2cc(C(F)(F)F)ccc21` (racemic), `COc1ccc(Cl)cc1[C@]1(O)C(=O)Nc2cc(C(F)(F)F)ccc21` (stereo in doubt; (+)-4c) is lower in Control: 120% for the first, 117% for the second.

Compared with `O=C1Nc2cc(C(F)(F)F)ccc2C1(O)c1cccc(Cl)c1` (racemic), `COc1ccc(Cl)cc1[C@]1(O)C(=O)Nc2cc(C(F)(F)F)ccc21` (stereo in doubt; (-)-4c) is higher in Control: 96.7% for the first, 116% for the second.

What follows are compounds tested against Calcium-activated potassium channel subunit alpha-1 (Mus musculus) (UniProt Q08460) (assay: Effect on outward K+ current using two-electrode voltage clamp recording from Xenopus laevis oocyte expressing cloned mSlo at 20 uM).
Format: functional

Compared with `O=c1[nH]c2cc(C(F)(F)F)ccc2n1-c1cc(Cl)ccc1O`, `O=C1Nc2cc(C(F)(F)F)ccc2C1(O)c1cc(Cl)ccc1O` (racemic) is lower in Control: 132% for the first, 131% for the second.

Going from `O=C1Nc2cc(C(F)(F)F)ccc2C1(O)c1ccccc1O` (racemic) to `O=C1Nc2cc(C(F)(F)F)ccc2[C@@]1(O)c1cc(Cl)ccc1O` (stereo in doubt; (+)-4e), the Control rises from 90.4% to 124%.

Compared with `O=C1Nc2ccccc2C1(O)c1cc(Cl)ccc1O` (racemic), `O=C1Nc2cc(C(F)(F)F)ccc2[C@@]1(O)c1cc(Cl)ccc1O` (stereo in doubt; (-)-4e) is higher in Control: 95.3% for the first, 141% for the second.
